# Test results from a melting point compilation (Tetko et al.; mined from patent text by program, amines drawn as free bases though some values may be those of a salt).
row,melting point,SMILES
1,163 to 165 °C,CN1CCN(C2CCN(c3ncc4ncnc(Nc5ccc(F)c(Cl)c5)c4n3)CC2)CC1
2,131 °C,O=C(COc1cc(-c2cccc(Cl)c2)nc2ccccc12)N1CCOCC1
3,165 to 166 °C,Cc1c(/C=N/OCc2ccc(C(=O)O)c(Br)c2)c2ccccc2n1C
4,225 to 226 °C,COc1ccc(C#Cc2ccc3c(Nc4cc(OC)c(Cl)cc4Cl)c(C#N)cnc3c2)cc1
5,152 to 157 °C,CN1CCN(c2ccc(Nc3ncc4ccc(Nc5ccccc5)n4n3)cc2)CC1
6,99 to 100 °C,CCN(CC)CC(=O)Nc1ccc(-c2n[nH]c3c2Cc2ccccc2-3)cc1
7,193 to 194 °C,CC(=O)OC1CCCN(C(=O)c2ccc(NC(=O)c3ccccc3C)cc2)c2ccccc21 (configuration not stated)
8,173 to 175 °C,COC(=O)c1ccc(CN2CCC(N)CC2)nc1
9,111 to 113 °C,O=C(OC1C2OCC(O2)C(OCc2ccccc2)C1OCc1ccccc1)c1ccccc1 (configuration not stated)
10,108 to 110 °C,Cc1[nH]c2ccccc2c1CCCN1CCC(c2noc3cc(Cl)ccc23)CC1
11,188 °C,Cc1cc(COc2ccc(S(=O)(=O)NC[C@@H](C(=O)NO)N3CCN(Cc4ccccc4)CC3)cc2)c2ccccc2n1
12,156 to 162 °C,CCOC(=O)c1ccc(NC(=O)Oc2ccccc2)cc1
13,110 to 114 °C,CC1(C)NCCc2c1oc1cc(S(=O)(=O)c3cccc(F)c3)ccc21
14,90 to 95 °C,CCC1CCCCN(C(=O)C2Cc3ccccc3N2c2ccc(=O)n(C)n2)C1 (configuration not stated)
15,123 to 124 °C,COc1cc(COc2nn(-c3ccccc3)cc2C=O)ccc1OCc1csc(N2CCCCC2)n1
16,138 to 139 °C,COc1ccc(CNCCCOc2ccc(NC(=O)c3cccc4c(=O)c5ccccc5[nH]c34)cc2)cc1OC
17,139 to 142 °C,CCCOCCOc1ccc(-c2ccc3c(c2)C=C(C(=O)O)CCN3Cc2ccccc2)cc1

row,melting point,SMILES
1,204 °C,COc1cc(C(=O)N2Cc3ccc(C(=O)NCc4ccccc4C)n3Cc3ccccc32)ccc1-c1ccccc1C
2,234 °C,Cc1ccc(N2C(=O)C(O)=C(C(=O)c3ccc(N4CCOCC4)cc3)C2c2ccc(OC(F)(F)F)cc2)nn1 (configuration not stated)
3,222 to 224 °C,O=C(O)Cc1cccc2c(=O)cc(-c3cc(F)ccc3F)oc12
4,339 to 343 °C,O=S1C(c2cccc(-c3ccc(O)c(C45CC6CC(CC(C6)C4)C5)c3)n2)=CN=C1N1CCOCC1 (configuration not stated)
5,132 to 134 °C,CNCC1Oc2cc(F)cc(-c3ccccc3Cl)c2O1 (configuration not stated)
6,95 to 97 °C,COc1ccccc1N1CCN(C(=O)Cc2ccccc2Br)CC1
7,154 °C,C[C@H](CN(O)C(N)=O)NC(=O)c1cccc(Oc2ccccc2)c1
8,130 to 140 °C,Cc1cc(C)nc(-n2c(C(=O)Nc3ccc4c(c3)nc(C)n4C)cc3cc(F)ccc32)c1
9,103 to 104 °C,CCOC(=O)Cc1c2cc(OC)ccc2n2c(Cc3ccccn3)nccc12
10,189 to 190 °C,CN1C(=O)c2cnc(-c3ccccc3)nc2N(C(=O)CCl)c2ccccc21
11,60 to 62 °C,CCOC(=O)C(C)(C)Oc1ccc(OCCn2c(=O)sc3cc(C(=NO)c4ccccc4)ccc32)cc1
12,132 to 133 °C,CCOCc1nc2c(N)nc3cc(CCCN4CCOCC4)ccc3c2n1CC(C)(C)O
13,134 to 135 °C,COc1ccc(C2=NN(c3ccccc3)C(=O)[C@H]3CC=CC[C@@H]23)cc1OC (relative stereo)
14,193 to 195 °C,CC1Cc2cc3c(cc2C(c2ccc([N+](=O)[O-])cc2)=NN1C(=O)Cc1ccccc1)OCO3 (configuration not stated)
15,138 to 139 °C,Cc1ccc(CNC(=O)c2sc(N3CCN(Cc4ccccc4)C3=O)nc2C)o1
16,102 to 105 °C,CCC1CCC(Oc2cc(F)cc(C(=O)Nc3ccc(OCCN4CCOCC4)c4ccccc34)c2)CC1 (configuration not stated)

# The next lines start with the compound.
row,SMILES,melting point
1,FC(F)(F)c1ccc(-c2nc(Br)cc(Br)n2)cc1,87 °C
2,O=C1c2ccccc2C(=O)N1Cc1noc(-c2ncn3c2[C@@H]2CCN2C(=O)c2c-3cccc2C(F)(F)F)n1,243 to 245 °C
3,CSC(SC)=C1C(=O)OC(C)(C)OC1=O,114 to 118 °C
4,O=C(NNc1ccc([N+](=O)[O-])cc1)c1ccc(Cl)cc1,246 to 248 °C
5,COc1cc(C(C)=O)cc(N)c1OC,63 to 65 °C
6,CC(=O)C1=Nc2cc3c(c(C)c2=C1C)N=c1ccccc1=3,258 to 260 °C
7,NC(=O)CC1C=CC=CC1(F)F (configuration not stated),113 to 114 °C
8,COCCS(=O)(=O)c1ccc(CCN2CC=C(c3c[nH]c(-c4ccc(F)c(Cl)c4)c3-c3ccncc3)CC2)cc1,208 to 210 °C
9,Nc1cc2c(cn1)[nH]c1ccccc12,288 to 290 °C
10,CC(C)[Si](Oc1cc(C=O)c2c(c1)C1(C)CCN(C)C1N2C)(C(C)C)C(C)C (configuration not stated),42 to 45 °C
11,O=c1c(Cl)c(SCc2ccc(Cl)cc2)cnn1-c1ccccc1,154 to 155 °C
12,N#Cc1ccc(Nc2nc(NCc3ccco3)nc(Nc3ccc(O)cc3)n2)cc1,62 to 65 °C
13,CSc1ccc(-c2c(Cl)nc(Cl)nc2-c2ccccc2)cc1,88 to 90 °C
14,COc1c(N2CC(F)[C@](C)(N)C2)c(F)cc2c(=O)c(C(=O)O)cn([C@@H]3C[C@@H]3F)c12 (some centres not stated),160 to 163 °C
15,Cc1ncc(C#N)c(Nc2cccc3[nH]ccc23)c1I,192 to 194 °C
16,CN(C(=O)CBr)c1ccc(OCC(=O)N[C@@H](CC(N)=O)C(=O)N[C@@H](Cc2ccccc2)[C@H](O)C(=O)N2CCC[C@H]2C(=O)NC(C)(C)C)cc1,116 to 122 °C
17,CC(C)Oc1cccc(NC(=O)OC(C)(C)C)c1,79 to 81 °C
18,CC(=O)NC[C@H]1CN(c2ccc(N=C=S)c(F)c2)C(=O)O1,172 to 176 °C
19,CC(C)S(=O)c1ccc2[nH]nc(Nc3nccs3)c2c1 (configuration not stated),> 240 °C
20,O=C1C[C@H]2CCCC[C@]23c2cccn2CCN13 (relative stereo),122 to 123 °C
21,COc1cc(OC)c2c(=O)[nH]c(-c3cc(-c4ccc(S(C)=O)cc4)cs3)nc2c1 (configuration not stated),> 300 °C
22,ON=C(c1ccccc1)c1ccc(C(=NO)c2ccc(C(=NO)c3ccccc3)cc2)cc1,224 to 225 °C

row,SMILES,melting point
1,C/C(=C\c1ccc(Cc2cccnc2)cc1)C(=O)Oc1ccccc1,52 to 53 °C
2,CCS(=O)(=O)N(C(C)=O)c1cc(-c2ncnc(C(F)(F)F)c2Cl)c(F)cc1C#N,144 to 146 °C
3,Cc1ccc(C(O)(Cc2nnnn2C)c2ccc(C)cc2F)c(F)c1,150 to 151 °C
4,CC(C)(C)c1nc(C(N)=S)ncc1O,169 to 171 °C
5,Nc1cc(Oc2ccc(S(=O)(=O)c3ccc(OCc4ccccc4)c(Cl)c3)cc2Cl)c([N+](=O)[O-])cc1O,181 to 184 °C
6,CCCc1c(C(=O)C(C)C)c2ccc(CC(=O)O)cc2n1Cc1cc2c(cc1Cl)OCO2,81 to 83 °C
7,Cn1c(=O)c2conc2n(C)c1=O,170 to 171 °C
8,COc1ccc2nc(COc3ccc(CC(SC(C)=O)C(=O)O)cc3)n(C)c2c1 (configuration not stated),209 to 214 °C
9,ON=C1c2ccccc2CCC1c1ccccc1 (configuration not stated),156 to 157 °C
10,COC(=O)CCCCOc1ccc2nc3[nH]c(=O)n(C)c3cc2c1,223 to 225 °C
11,CCn1c([N+](=O)[O-])cnc1-c1nnc2ccc(N=CN(C)C)nn12,198 to 200 °C
12,CC(C)C1Sc2ccccc2N(CC(=O)O)C1=S (configuration not stated),175 to 176 °C
13,CCOc1ncc(S(C)(=O)=O)cc1C(=O)O,175 to 176 °C
14,Cc1cc(-n2nc(C(F)F)cc2-c2ccc(S(C)(=O)=O)cc2)ccc1F,154 to 155 °C
15,CN1CCN(C(=O)/C=C/CSc2nc(N)cc(Cl)n2)CC1,155 to 156 °C
16,COc1ccc(C=NNC(=N)N)cc1OC1CCCC1,100 to 103 °C
17,COc1cc(N)c(Cl)cc1C(=O)NCCN(C)C1CC1,164 to 165 °C
18,Clc1ccc(N=Cc2ccc(Cl)c3cc(Cl)cnc23)c(Cl)c1,156 °C
19,COc1ccc(CN2CCC(c3cn(CCc4ccsc4)c4cc(F)ccc34)CC2)cc1C(=O)O,228 to 229 °C
20,CCCCCCCCCCCCNC(=O)n1nc(Oc2ncc(C(F)(F)F)cc2Cl)c(Cl)c1C,68 to 70 °C
21,CC(C)(C)c1cc(SC2CCOC2=O)cc(C(C)(C)C)c1O (configuration not stated),98 °C
22,O=S(=O)(c1ccc(N2CCCCCC2)cc1)N1CCCC1=S,172 to 173 °C

row,SMILES,melting point
1,O=C(NC1CCCCC1)NS(=O)(=O)c1ccc2c(c1)CCN(C(=O)N1CCCCC1)CC2,166 to 167 °C
2,N#Cc1cc(O)c2[nH]c(=O)oc2c1,> 220 °C
3,OC(CCNCc1ccccc1)(c1ccccc1)c1ccccc1,145 to 146 °C
4,CCCCCC1=CCC(c2cc(F)c(C#N)c(F)c2)C=C1 (configuration not stated),59 °C
5,CCOC(=N)C1(O)CCc2ccccc21 (configuration not stated),< 20 °C
6,OC1CC=C(c2ccc(Cl)cc2)CC1 (configuration not stated),108 to 112 °C
7,COc1cc(CCCn2cncn2)ccc1O,97 to 98 °C
8,Cc1cnc(Cl)c(C(=O)O)c1,180 °C
9,CCOC(=O)c1nnc(N2N=C(c3ccc([N+](=O)[O-])c(C)c3)c3cc4c(cc3C[C@H]2C)OCO4)s1,115 to 118 °C
10,CCOC(=O)CN1CC(=O)N(C)c2ccc([N+](=O)[O-])cc2C1=O,129 to 130 °C
11,Cc1ccc(-n2cc(C)cc2-c2ccc(S(N)(=O)=O)cc2)cc1,144 to 147 °C
12,O=C(O)c1ccc(C(=O)c2ccc(Br)cc2)cc1,270 to 271 °C
13,CN1CCN(c2cc3c(Cl)cccc3c(=O)[nH]2)CC1CO (configuration not stated),212 to 214 °C
14,CONC(=O)Nc1ccc(-c2sc3c(c2CN(C)C(C)(C(=O)O)c2ccccc2)c(=O)n(-c2ccccc2)c(=O)n3Cc2c(F)cccc2F)cc1 (configuration not stated),147 to 149 °C
15,O=c1[nH]c2cc(Cl)ccc2c(O)c1SC/C=C\c1ccccc1,> 300 °C
16,CCC12CCC3C4CCCC=C4CCC3C1C=CC2=O (configuration not stated),125 °C
17,Cc1cc(N)c(S(N)(=O)=O)cc1-c1ccccn1,229 to 231 °C
18,Cc1nc2ccnc(-c3ccccc3)n2n1,68 to 71 °C
19,COc1ccc2[nH]c3c(c4c(c5c6cc(OC)ccc6n(C)c35)C(=O)N(C)C4=O)c2c1,> 330 °C
20,ClCc1ccc(OCc2csc(-c3ccccc3)n2)cc1,98 to 99 °C
